A short description of data set [1]: physchem. As to conditions: water.
Data set [2] can be described thus: Solubility in water. To be noted: in words, compared with cyclomaltoheptaose (CG₇).
Data set [3] is described as follows: Solubility of apolar solutes in aqueous cyclomalto-oligosaccharide solutions (inclusion complexes). It counts as physicochemical.
The nature of data set [4]: Apparent stability constant of inclusion complexes. To be noted: in words, complexes with the new derivatives compared with the corresponding cyclomaltoheptaose (CG₇) complexes.

This is an account of results in patent EP0403366A2, “Cyclomalto-oligosaccharide derivatives and processes for their preparation” (priority 1989, dated 1990).

Converted amounts (≈) assume the structure as drawn.

By solubility is commonly meant the dissolved amount per volume that the medium holds. Low values mean a poorly soluble substance, high ones a readily soluble substance. In data set [1], `OC[C@H]1O[C@H](SC[C@H]2O[C@@H]3O[C@H]4[C@H](O)[C@@H](O)[C@@H](O[C@H]5[C@H](O)[C@@H](O)[C@@H](O[C@H]6[C@H](O)[C@@H](O)[C@@H](O[C@H]7[C@H](O)[C@@H](O)[C@@H](O[C@H]8[C@H](O)[C@@H](O)[C@@H](O[C@H]9[C@H](O)[C@@H](O)[C@@H](O[C@H]2[C@H](O)[C@H]3O)O[C@@H]9CO)O[C@@H]8CO)O[C@@H]7CO)O[C@@H]6CO)O[C@@H]5CO)O[C@@H]4CO)[C@H](O)[C@@H](O)[C@@H]1O` [Composé 1, 6-S-alpha-D-glucopyranosyl-6-thio-cyclomaltoheptaose] returned a solubility of 430 mg/mL (≈ 327 mM). The “solubilité dans l'eau” value in data set [2] is given as “améliorée par rapport à celle du CG₇”.

Turning to `Cc1cccc(N(C)C(=S)Oc2ccc3ccccc3c2)c1` [Tolnaftate, O-2-Naphtyl-méthyl-(3-méthylphényl)-carbomothioate], the Solubilité in data set [3] (Solution aqueuse à 1,7.10^-2 mol/l de CG7) is 840 µg/mL; in data set [3] (Solution aqueuse à 3,10^-2mol/l de composé n°1), 52 690 µg/ml; in data set [3] (Solution aqueuse à 3,10^-2 mol/l de composé n° 2), 37 090 µg/ml. In data set [1], the solubility came out at 0.012 mg/mL (≈ 0.039 mM).

Turning to `OC[C@H]1O[C@@H](SC[C@H]2O[C@@H]3O[C@H]4[C@H](O)[C@@H](O)[C@@H](O[C@H]5[C@H](O)[C@@H](O)[C@@H](O[C@H]6[C@H](O)[C@@H](O)[C@@H](O[C@H]7[C@H](O)[C@@H](O)[C@@H](O[C@H]8[C@H](O)[C@@H](O)[C@@H](O[C@H]9[C@H](O)[C@@H](O)[C@@H](O[C@H]2[C@H](O)[C@H]3O)O[C@@H]9CO)O[C@@H]8CO)O[C@@H]7CO)O[C@@H]6CO)O[C@@H]5CO)O[C@@H]4CO)[C@H](O)[C@@H](O)[C@@H]1O` [Composé 2, 6-S-bêta-D-glucopyranosyl-6-thio-cyclomaltoheptaose], the concentration in solution in data set [1] (solubility) was 30 mg/mL (≈ 22.8 mM). Further, the “solubilité dans l'eau” value in data set [2] was “très améliorée par rapport à celle du cyclomaltoheptaose”.

With `Oc1ccc2ccccc2c1` [2-naphtol], the “constantes de stabilité apparente des complexes” value in data set [4] was “ne sont pas notablement modifiées”.

`C[C@]12CCC(=O)C=C1CC[C@@H]1[C@@H]2[C@@H](O)C[C@@]2(C)[C@H]1CC[C@]2(O)C(=O)CO` [Hydrocortisone]: the “constantes de stabilité apparente des complexes” value in data set [4] was “ne sont pas notablement modifiées”.
